Measured values taken from article PMC11039737, “Exploring a repurposed candidate with dual hIDO1/hTDO2 inhibitory potential for anticancer efficacy identified through pharmacophore-based virtual screening and in vitro evaluation” (Scientific Reports, 2024).

Columns and labels:
[1] = molecular target: T1, human Tryptophan 2,3-dioxygenase 2 (hTDO2) (Homo sapiens, UniProt P48775); test: TDO2 Fluorogenic Inhibitor Screening Assay Kit (Catalog # […]), enzymatic dose response; type: biochemical
T1 construct: gene TDO2

[2] = molecular target: T2, human Indoleamine 2,3-dioxygenase 1 (hIDO1) (Homo sapiens, UniProt P14902); test: IDO1 Inhibitor Screening Assay Kit (Catalog # […]), enzymatic dose response; type: biochemical
T2 construct: gene IDO1
T2 sequence (P14902 whole entry): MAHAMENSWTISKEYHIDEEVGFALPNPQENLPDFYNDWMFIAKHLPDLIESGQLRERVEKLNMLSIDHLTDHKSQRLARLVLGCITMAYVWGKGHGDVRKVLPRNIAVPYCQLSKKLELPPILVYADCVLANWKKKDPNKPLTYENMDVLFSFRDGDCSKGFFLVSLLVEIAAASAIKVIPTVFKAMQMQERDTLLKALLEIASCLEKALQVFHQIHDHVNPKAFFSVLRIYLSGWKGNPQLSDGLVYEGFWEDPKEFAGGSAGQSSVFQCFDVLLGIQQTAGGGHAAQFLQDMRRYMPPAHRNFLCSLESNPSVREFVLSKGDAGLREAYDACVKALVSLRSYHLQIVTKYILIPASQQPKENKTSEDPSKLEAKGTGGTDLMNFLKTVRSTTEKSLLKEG

T1 sequence (P48775 whole entry): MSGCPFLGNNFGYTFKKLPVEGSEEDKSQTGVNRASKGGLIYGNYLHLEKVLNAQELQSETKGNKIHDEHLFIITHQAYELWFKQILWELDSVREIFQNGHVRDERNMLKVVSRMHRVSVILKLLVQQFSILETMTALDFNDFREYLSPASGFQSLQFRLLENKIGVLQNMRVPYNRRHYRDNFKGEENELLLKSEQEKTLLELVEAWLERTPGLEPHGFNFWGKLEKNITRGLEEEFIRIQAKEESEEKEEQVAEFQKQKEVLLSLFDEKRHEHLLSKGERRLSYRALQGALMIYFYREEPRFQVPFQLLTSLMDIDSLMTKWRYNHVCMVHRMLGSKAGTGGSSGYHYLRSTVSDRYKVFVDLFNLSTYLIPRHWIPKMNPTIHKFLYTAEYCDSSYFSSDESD

SMILES: O=C(O)C[C@H](O)C[C@H](O)/C=C/c1c(C2CC2)nc2ccccc2c1-c1ccc(F)cc1 [Pitavastatin]
- IC50 [1]: 588 ± 27 nM
- IC50 [2]: 351 ± 16 nM
